Data from patent US11564913B2, “Compositions and methods for treating cancer” (Children's Hospital Medical Center, priority 2019, dated 2023).

Key:
[1] = system: MCF7, T47D, and MDA-MB-231 cells; test: Colony formation in soft agar, breast cancer cells; type: cell-based; settings: 1 and 3 μM
Procedure: FIG. 4. IODVA1 inhibits proliferation of cancer model cells. (A) IODVA1 is a potent cell proliferation inhibitor. MCF10A, MCF7, MDA-MB-231, and T47D cells were grown in the presence of the indicated IODVA1 concentrations and counted for 4 or up to 7 days. Each dot and bar is the mean±stdev respectively, of 3 independent experiments, with 2 technical replicates in each experiment. (B) Number of colonies made by MCF7, T47D, and MDA-MB-231 cells at the indicated IODVA1 concentrations. Results shown are mean±stdev of 2 independent experiments with 4 technical replicates each. (C) IODVA1 deactivates Ras at late incubation times. […] Quantification summary of 2 independent experiments is presented in the graph. n.s.—not significant, *-p<0.05, **-p<0.01, ****-p<0.0001. (D) IODVA1 inhibits proliferation of ST8814 cells. ST8814 cells were grown in the presence of the indicated IODVA1 concentrations and counted daily for 4 days. Each dot and bar is the mean and standard deviation respectively, of 3 independent experiments.
Applicants tested IODVA1's ability to inhibit the proliferation of cells harboring activated Ras and therefore its ability to recapitulate the compound obtained from the NCI. […] Cells were grown in growth media containing IODVA1 at concentrations between 0.1 and 10 μM or vehicle control and cell number was counted using the trypan blue exclusion method. […]

MDA-MB-231 cells = test: Spheroid formation, hanging drop method; type: cell-based, human; settings: before trituration
Procedure: FIG. 6: IODVA1 inhibits cell-substratum and cell-cell interactions. (A) IODVA1 impedes spreading of MCF7 and MDA-MB-231 cells on fibronectin. MCF7, T47D, and MDA-MB-231 cells were incubated on fibronectin coated coverslips for 10 min, then further incubated with the indicated concentrations of IODVA1 for 30 min in serum-free media, fixed and observed by bright field microscopy. Areas of single cells were calculated from 6 random fields (no less than 300 cells total per treatment group). Results shown are mean±s.e.m. of a single experiment and are representative of three independent experiments. (B) Effects of IODVA1 treatment on spheroid formation in MCF10A, MCF7, T47D, and MDA-MB-231 cells. […] Aggregates and spheroids were dissociated with accutase and trituration, and the number of live cells was determined by trypan blue exclusion. […]
Spheroids were formed by the hanging drop method or using ultra-low attachment (ULA) plates (Corning). […] Spheroid formation was monitored daily and imaged using EVOS microscope (Life Technologies). For assessment of attachment-free proliferation, the contents of the well were transferred into an Eppendorf tube, centrifuged at 100×g for 5 min, dissociated into a single cell suspension using trituration and Accutase (Invitrogen) treatment at room temperature and counted using trypan blue exclusion.

**Q.** With `OC1(c2ccccn2)N=C(Nc2nc3ccccc3[nH]2)N=C1c1ccccn1` (centres unmarked) [IODVA1, (Z)-2-((1H-benzo[d]imidazol-2-yl)imino)-4,5-di(pyridin-2-yl)-2,5-dihydro-1H-imidazol-5-ol] as the compound, how does the “number of colonies in soft agar” value [1] read?
**A.** Its value is “significantly decreases”.

**Q.** And the aggregate formation (MDA-MB-231 cells)?
**A.** Its aggregate formation is “not affected”.
